From patent US8802674B2, “Aminopyrimidine derivatives as LRRK2 modulators” (Genentech, Inc., priority 2011, dated 2014)

The compounds below were run against LRRK2 (Homo sapiens (Human), UniProt Q5S007, G2019S) (assay: In Vitro LRRK2 LabChip Assay). Conditions: Table 4.
LRRK2, sequence (Q5S007 970-2527 G2019S limits assumed): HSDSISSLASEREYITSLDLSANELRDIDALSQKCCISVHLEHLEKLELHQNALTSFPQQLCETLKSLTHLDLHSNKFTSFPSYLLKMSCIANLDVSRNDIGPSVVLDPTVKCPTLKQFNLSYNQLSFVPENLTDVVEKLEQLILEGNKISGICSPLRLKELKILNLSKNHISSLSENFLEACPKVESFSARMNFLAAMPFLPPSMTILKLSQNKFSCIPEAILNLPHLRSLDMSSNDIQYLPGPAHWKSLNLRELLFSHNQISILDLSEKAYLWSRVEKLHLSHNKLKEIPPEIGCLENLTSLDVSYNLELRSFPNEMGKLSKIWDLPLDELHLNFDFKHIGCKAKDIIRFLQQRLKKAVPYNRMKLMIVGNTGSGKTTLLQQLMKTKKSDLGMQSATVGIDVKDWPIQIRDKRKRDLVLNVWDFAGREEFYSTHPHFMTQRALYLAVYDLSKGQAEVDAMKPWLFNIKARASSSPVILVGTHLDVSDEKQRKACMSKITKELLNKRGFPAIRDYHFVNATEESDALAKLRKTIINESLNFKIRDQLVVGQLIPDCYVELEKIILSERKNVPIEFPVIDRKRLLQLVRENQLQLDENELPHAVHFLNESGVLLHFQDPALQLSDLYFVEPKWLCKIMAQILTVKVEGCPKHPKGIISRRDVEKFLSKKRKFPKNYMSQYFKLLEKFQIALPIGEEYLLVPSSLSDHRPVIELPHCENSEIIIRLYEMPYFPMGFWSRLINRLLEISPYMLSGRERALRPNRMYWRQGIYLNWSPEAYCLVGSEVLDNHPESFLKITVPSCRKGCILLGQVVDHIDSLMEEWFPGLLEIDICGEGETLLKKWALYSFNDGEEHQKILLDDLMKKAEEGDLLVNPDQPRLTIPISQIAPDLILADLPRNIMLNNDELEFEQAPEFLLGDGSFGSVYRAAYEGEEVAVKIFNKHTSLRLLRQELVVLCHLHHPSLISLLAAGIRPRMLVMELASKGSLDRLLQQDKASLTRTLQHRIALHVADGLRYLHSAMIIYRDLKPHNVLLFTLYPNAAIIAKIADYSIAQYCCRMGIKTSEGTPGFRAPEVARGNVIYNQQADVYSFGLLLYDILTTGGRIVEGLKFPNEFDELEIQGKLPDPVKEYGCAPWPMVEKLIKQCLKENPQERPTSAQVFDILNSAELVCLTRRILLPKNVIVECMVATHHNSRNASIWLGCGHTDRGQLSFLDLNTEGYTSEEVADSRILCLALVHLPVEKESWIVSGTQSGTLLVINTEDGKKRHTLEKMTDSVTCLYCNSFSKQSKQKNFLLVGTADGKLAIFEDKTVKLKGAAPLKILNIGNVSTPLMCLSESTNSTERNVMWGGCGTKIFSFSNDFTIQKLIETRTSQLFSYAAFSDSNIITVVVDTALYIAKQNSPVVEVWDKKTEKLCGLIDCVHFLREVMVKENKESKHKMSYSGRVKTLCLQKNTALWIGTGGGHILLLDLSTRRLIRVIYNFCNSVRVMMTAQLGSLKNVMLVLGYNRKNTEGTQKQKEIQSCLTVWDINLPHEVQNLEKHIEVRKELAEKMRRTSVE
Format: biochemical
Experimental: In Vitro LRRK2 LabChip Assay
This assay was used to determine a compound's potency in inhibiting activity of LRRK2 by determining, Kiapp, IC50, or percent inhibition values. In a polypropylene plate, LRRK2, fluorescently-labeled peptide substrate, ATP and test compound were incubated together. Using a LabChip 3000 (Caliper Life Sciences), after the reaction the substrate was separated by capillary electrophoresis into two populations: phosphorylated and unphosphorylated. The relative amounts of each were quantitated by fluorescence intensity. LRRK2 Ki was determined according to the equation: Y=V0*(1−((x+Ki*(1+S/Km)+Et)/(2*Et)−(((x+Ki*(1+S/Km)+Et)^2−(4*Et*x))^0.5)/(2*Et))). Ki values in Table 4 and elsewhere herein are shown in μM.
Assay conditions and materials used were as follows:
Compound Plate Preparation:
For serial dilutions, 34.6 μl DMSO was added to columns 3-24. For the assay controls, 37.5 μl DMSO was added to columns 1 and 2 of rows A and P. a,d and 50 μl 25 μM G-028831 (Staurosporine) was added to columns 1 and 2, row B. For the samples: to start at 100 μM, 37.5 μl DMSO was to columns 1 and 2, then 12.5 μl 10 mM compound; to start at 10 μM, 78 μl DMSO was added to columns 1 & 2, then 2 μl 10 mM compound; and to start at 1 μM, 25 μM compound (2 μl 10 mM cmpd+798 μl DMSO) was added to empty columns 1 and 2. A Precision instrument was used to perform 1:3.16 serial dilutions (“PLK_BM_serial_halflog”).
ATP was diluted to 282.1 μM in Complete Kinase Buffer (final concentration was 130 μM).
Total and Blank Preparation:
In Complete Reaction Buffer, substrate was diluted to 4 μM. Equal volumes of Complete Reaction Buffer and 4 μM substrate were combined to obtain the blank. Equal volumes of Complete Reaction Buffer and 4 μM substrate were combined and to the combined solution was added 2× final LRRK2 concentration.
To a 50 μl polypropylene plate, 5 μl/well buffer/substrate was added by hand to Blank wells. A Biomek FX was used to start the kinase reaction (“PLK SAR 23 ATP”). The following were added to the appropriate wells:
5 μl/well compound/ATP in Assay Plate;
5 μl/well kinase/substrate in Assay Plate;
The plate was incubated for 2 hours in the dark. Biomek FX was used to stop the kinase reaction (“PLK Stop”), and 10 μl/well Stop solution was added to the Assay Plate. Results were read on the LabChip 3000.
The LabChip 3000 was run using the job “LRRK2IC50” with the following job settings: […]
`CNc1nc(Nc2cc(OC)c(C(N)=O)cc2Cl)ncc1Cl` [Example 141, 5-Chloro-4-(5-chloro-4-methylamino-pyrimidin-2-ylamino)-2-methoxy-benzamide] gave a Ki of 9.3 nM.
For `CNc1nc(Nc2cc(OC)c(C(=O)NCCO)cc2Cl)ncc1Cl` [Example 142, 5-Chloro-4-(5-chloro-4-methylamino-pyrimidin-2-ylamino)-N-(2-hydroxy-ethyl)-2-methoxy-benzamide], the Ki was 11 nM.
`CNC(=O)c1cc(Cl)c(Nc2ncc(Cl)c(NC)n2)cc1OC` [Example 144, 5-Chloro-4-(5-chloro-4-methylamino-pyrimidin-2-ylamino)-2-methoxy-N-methyl-benzamide] showed a Ki of 11.3 nM.
Work on `CNc1nc(Nc2cc(OC)c(C(=O)N3CCC(F)(F)CC3)cc2Cl)ncc1Cl` [Example 146, [5-Chloro-4-(5-chloro-4-methylamino-pyrimidin-2-ylamino)-2-methoxy-phenyl]-(4,4-difluoro-piperidin-1-yl)-methanone] yielded a Ki of 7.8 nM.
In the case of `CCNc1nc(Nc2cc(OC)c(C(=O)N3CCOCC3)cc2Cl)ncc1C(F)(F)F` [Example 147, [5-Chloro-4-(4-ethylamino-5-trifluoromethyl-pyrimidin-2-ylamino)-2-methoxy-phenyl]-morpholin-4-yl-methanone], the Ki is reported as 3.4 nM.
Work on `CCNc1nc(Nc2cc(OC)c(C(=O)NC3CC3)cc2Cl)ncc1C(F)(F)F` [Example 148, 5-Chloro-N-cyclopropyl-4-(4-ethylamino-5-trifluoromethyl-pyrimidin-2-ylamino)-2-methoxy-benzamide] yielded a Ki of 3.5 nM.
Compound `CCNc1nc(Nc2cc(OC)c(C(=O)NCCOC)cc2Cl)ncc1C(F)(F)F` [Example 149, 5-Chloro-4-(4-ethylamino-5-trifluoromethyl-pyrimidin-2-ylamino)-2-methoxy-N-(2-methoxy-ethyl)-benzamide] has a Ki of 9.3 nM.
`CNc1nc(Nc2cc(OC)c(C(=O)N3CCNCC3)cc2Cl)ncc1Cl` [Example 150, [5-Chloro-4-(5-chloro-4-methylamino-pyrimidin-2-ylamino)-2-methoxy-phenyl]-piperazin-1-yl-methanone] was tested, and the Ki was 8.9 nM.
`CNc1nc(Nc2cc(OC)c(C(=O)N3CCC(N(C)C)CC3)cc2Cl)ncc1Cl` [Example 151, [5-Chloro-4-(5-chloro-4-methylamino-pyrimidin-2-ylamino)-2-methoxy-phenyl]-(4-dimethylamino-piperidin-1-yl)-methanone] was tested, and the Ki was 2.8 nM.
`CNc1nc(Nc2cc(OC)c(C(=O)N3CCC(O)C3)cc2Cl)ncc1Cl` (stereo not shown) [Example 152, [5-Chloro-4-(5-chloro-4-methylamino-pyrimidin-2-ylamino)-2-methoxy-phenyl]-(3-hydroxy-pyrrolidin-1-yl)-methanone] showed a Ki of 8.6 nM.
Compound `CNc1nc(Nc2cc(OC)c(C(=O)NC3COC3)cc2Cl)ncc1Cl` [Example 153, 5-Chloro-4-(5-chloro-4-methylamino-pyrimidin-2-ylamino)-2-methoxy-N-oxetan-3-yl-benzamide] has a Ki of 27.4 nM.
`CNc1nc(Nc2cc(OC)c(C(=O)NC3CC3)cc2Cl)ncc1C(F)(F)F` [Example 154, 5-Chloro-N-cyclopropyl-2-methoxy-4-(4-methylamino-5-trifluoromethyl-pyrimidin-2-ylamino)-benzamide] was tested, and the Ki was 5.2 nM.
In the case of `CNc1nc(Nc2cc(OC)c(C(=O)NC3CCN(C)CC3)cc2Cl)ncc1Cl` [Example 155, 5-Chloro-4-(5-chloro-4-methylamino-pyrimidin-2-ylamino)-2-methoxy-N-(1-methyl-piperidin-4-yl)-benzamide], the Ki is reported as 4.5 nM.
With `CNc1nc(Nc2cc(OC)c(C(=O)N3CCCC3)cc2Cl)ncc1Cl` [Example 156, [5-Chloro-4-(5-chloro-4-methylamino-pyrimidin-2-ylamino)-2-methoxy-phenyl]-pyrrolidin-1-yl-methanone] the Ki was 7.4 nM.
Compound `CNc1nc(Nc2cc(OC)c(C(=O)NC(C)(C)C)cc2Cl)ncc1Cl` [Example 157, N-tert-Butyl-5-chloro-4-(5-chloro-4-methylamino-pyrimidin-2-ylamino)-2-methoxy-benzamide] has a Ki of 28.2 nM.
`CNc1nc(Nc2cc(OC)c(C(=O)N(C)C)cc2Cl)ncc1C(F)(F)F` [Example 158, 5-Chloro-2-methoxy-N,N-dimethyl-4-(4-methylamino-5-trifluoromethyl-pyrimidin-2-ylamino)-benzamide] showed a Ki of 6.8 nM.
`CNc1nc(Nc2cc(OC)c(C(=O)N3CCC(O)CC3)cc2Cl)ncc1Cl` [Example 161, [5-Chloro-4-(5-chloro-4-methylamino-pyrimidin-2-ylamino)-2-methoxy-phenyl]-(4-hydroxy-piperidin-1-yl)-methanone] gave a Ki of 3.6 nM.
In the case of `CNc1nc(Nc2cc(OC)c(C(=O)N3CCOC(CO)C3)cc2Cl)ncc1Cl` (stereo not shown) [Example 162, [5-Chloro-4-(5-chloro-4-methylamino-pyrimidin-2-ylamino)-2-methoxy-phenyl]-(2-hydroxymethyl-morpholin-4-yl)-methanone], the Ki is reported as 6.9 nM.
For `CNc1nc(Nc2cc(OC)c(C(=O)N(C)CCO)cc2Cl)ncc1Cl` [Example 163, 5-Chloro-4-(5-chloro-4-methylamino-pyrimidin-2-ylamino)-N-(2-hydroxy-ethyl)-2-methoxy-N-methyl-benzamide], the Ki was 7.8 nM.
In the case of `CNc1nc(Nc2cc(OC)c(C(=O)N3CCCOCC3)cc2Cl)ncc1Cl` [Example 165, [5-Chloro-4-(5-chloro-4-methylamino-pyrimidin-2-ylamino)-2-methoxy-phenyl]-[1,4]oxazepan-4-yl-methanone], the Ki is reported as 5.7 nM.
With `CNc1nc(Nc2cc(OC)c(C(=O)N3CCC(C#N)CC3)cc2Cl)ncc1Cl` [Example 167, l-[5-Chloro-4-(5-chloro-4-methylamino-pyrimidin-2-ylamino)-2-methoxy-benzoyl]-piperidine-4-carbonitrile] the Ki was 3.3 nM.
In the case of `CNc1nc(Nc2cc(OC)c(C(=O)N3CC(O)C3)cc2Cl)ncc1Cl` [Example 169, [5-Chloro-4-(5-chloro-4-methylamino-pyrimidin-2-ylamino)-2-methoxy-phenyl]-(3-hydroxy-azetidin-1-yl)-methanone], the Ki is reported as 5.4 nM.
Compound `CNc1nc(Nc2cc(OC)c(C(=O)NC3(C#N)CC3)cc2Cl)ncc1Cl` [Example 170, 5-Chloro-4-(5-chloro-4-methylamino-pyrimidin-2-ylamino)-N-(l-cyano-cyclopropyl)-2-methoxy-benzamide] has a Ki of 13.9 nM.
`CNc1nc(Nc2cc(OC)c(C(=O)N3CCC(C#N)C3)cc2Cl)ncc1Cl` (stereo not drawn) [Example 171, l-[5-Chloro-4-(5-chloro-4-methylamino-pyrimidin-2-ylamino)-2-methoxy-benzoyl]-pyrrolidine-3-carbonitrile] gave a Ki of 4.5 nM.
With `CNc1nc(Nc2cc(OC)c(C(=O)N3C[C@@H](C)N[C@@H](C)C3)cc2Cl)ncc1Cl` [Example 172, [5-Chloro-4-(5-chloro-4-methylamino-pyrimidin-2-ylamino)-2-methoxy-phenyl]-((3R,5S)-dimethyl-piperazin-1-yl)-methanone] the Ki was 33.3 nM.
`CNc1nc(Nc2cc(OC)c(C(=O)NC3CCN(C)CC3)cc2Cl)ncc1C(F)(F)F` [Example 173, 5-Chloro-2-methoxy-4-(4-methylamino-5-trifluoromethyl-pyrimidin-2-ylamino)-N-(1-methyl-piperidin-4-yl)-benzamide] gave a Ki of 1.5 nM.
Work on `CNc1nc(Nc2cc(OC)c(C(=O)NC3COC3)cc2Cl)ncc1C(F)(F)F` [Example 174, 5-Chloro-2-methoxy-4-(4-methylamino-5-trifluoromethyl-pyrimidin-2-ylamino)-N-oxetan-3-yl-benzamide] yielded a Ki of 4.1 nM.
`CNc1nc(Nc2cc(OC)c(C(=O)NCC(C)(C)O)cc2Cl)ncc1C(F)(F)F` [Example 175, 5-Chloro-N-(2-hydroxy-2-methyl-propyl)-2-methoxy-4-(4-methylamino-5-trifluoromethyl-pyrimidin-2-ylamino)-benzamide] was tested, and the Ki was 7.9 nM.
`CNc1nc(Nc2cc(OC)c(C(=O)N3CCNCC3)cc2Cl)ncc1C(F)(F)F` [Example 176, [5-Chloro-2-methoxy-4-(4-methylamino-5-trifluoromethyl-pyrimidin-2-ylamino)-phenyl]-piperazin-1-yl-methanone] was tested, and the Ki was 4.1 nM.
For `CNc1nc(Nc2cc(OC)c(C(=O)N3CCC(C#N)C3)cc2Cl)ncc1C(F)(F)F` (stereo not shown) [Example 177, 1-[5-Chloro-2-methoxy-4-(4-methylamino-5-trifluoromethyl-pyrimidin-2-ylamino)-benzoyl]-pyrrolidine-3-carbonitrile], the Ki was 2.9 nM.
With `CNc1nc(Nc2cc(F)c(C(=O)N3CCC(C#N)C3)cc2OC)ncc1C(F)(F)F` (stereo not drawn) [Example 178, l-[2-Fluoro-5-methoxy-4-(4-methylamino-5-trifluoromethyl-pyrimidin-2-ylamino)-benzoyl]-pyrrolidine-3-carbonitrile] the Ki was 1.8 nM.
